The record followed here is article PMC5218480 (PLoS ONE, 2017).

The assay concerns MV-4-11 cells. Briefly: Gene expression microarray analysis (Affymetrix PrimeView) and GSEA. Particulars: ProbeSet 11763895_x_at; LIST B. More on the design: RFU PODN (11730768_x_at) / Fold change /veh PODN (11730768_x_at) / RFU LINC00158 (11744669_a_at) / Fold change /veh LINC00158 (11744669_a_at) / RFU DUSP10 (11751237_a_at) / Fold change /veh DUSP10 (11751237_a_at) / RFU ID3 (11757404_x_at) / Fold change /veh ID3 (11757404_x_at) / RFU PLEKHG5 (11737974_s_at) / Fold change /veh PLEKHG5 (11737974_s_at) / RFU LRRC4B (11730491_at) / Fold change /veh LRRC4B (11730491_at) / RFU GIMAP4 (11747438_a_at) / Fold change /veh GIMAP4 (11747438_a_at) / RFU KRT8 (11758183_x_at) / Fold change /veh KRT8 (11758183_x_at) / RFU CNN1 (11734310_a_at) / Fold change /veh CNN1 (11734310_a_at) / RFU VPS37D (11726825_at) / Fold change /veh VPS37D (11726825_at) / RFU C10orf10 (11716522_x_at) / Fold change /veh C10orf10 (11716522_x_at) / RFU KIR2DL2 /// KIR2DL4 /// KIR2DL5A /// KIR2DL5B /// KIR2DS1 /// KIR2DS2 /// KIR2DS3 /// KIR2DS4 /// KIR3DL3 /// KIR3DL3 /// KIR3DS1 (11738374_at) / Fold change /veh KIR2DL2 /// KIR2DL4 /// KIR2DL5A /// KIR2DL5B /// KIR2DS1 /// KIR2DS2 /// KIR2DS3 /// KIR2DS4 /// KIR3DL3 /// KIR3DL3 /// KIR3DS1 (11738374_at) / RFU C1QL1 (11718748_at) / Fold change /veh C1QL1 (11718748_at) / RFU TMPRSS4 (11747572_a_at) / Fold change /veh TMPRSS4 (11747572_a_at) / RFU HAMP (11756126_x_at) / Fold change /veh HAMP (11756126_x_at) / RFU RNFT2 (11725882_a_at) / Fold change /veh RNFT2 (11725882_a_at) / RFU NR4A2 (11747474_a_at) / Fold change /veh NR4A2 (11747474_a_at) / RFU ABCC12 (11746883_a_at) / Fold change /veh ABCC12 (11746883_a_at) / RFU TMEM136 (11760407_x_at) / Fold change /veh TMEM136 (11760407_x_at) / RFU CLDN22 /// WWC2 (11732394_at) / Fold change /veh CLDN22 /// WWC2 (11732394_at) / RFU HLA-DPB1 (11760878_x_at) / Fold change /veh HLA-DPB1 (11760878_x_at) / RFU SPINT1 (11716480_a_at) / Fold change /veh SPINT1 (11716480_a_at) / RFU GAP43 (11754022_s_at) / Fold change /veh GAP43 (11754022_s_at) / RFU A4GNT (11735810_at) / Fold change /veh A4GNT (11735810_at) / RFU PRB3 (11715151_x_at) / Fold change /veh PRB3 (11715151_x_at) / RFU TUBB4B (11761932_at) / Fold change /veh TUBB4B (11761932_at) / RFU CAPN14 (11732068_a_at) / Fold change /veh CAPN14 (11732068_a_at) / RFU TMCC2 (11721928_a_at) / Fold change /veh TMCC2 (11721928_a_at) / RFU IRGQ (11745062_a_at) / Fold change /veh IRGQ (11745062_a_at) / RFU FAM174B (11720279_a_at) / Fold change /veh FAM174B (11720279_a_at) / RFU TMPRSS4 (11748680_a_at) / Fold change /veh TMPRSS4 (11748680_a_at) / RFU FAM212B (11763350_a_at) / Fold change /veh FAM212B (11763350_a_at) / RFU PLEKHG5 (11743358_a_at) / Fold change /veh PLEKHG5 (11743358_a_at) / RFU ZSCAN30 (11745921_a_at) / Fold change /veh ZSCAN30 (11745921_a_at) / RFU CMKLR1 (11741424_a_at) / Fold change /veh CMKLR1 (11741424_a_at) / RFU LOC101060620 /// MAPK8IP1 (11723275_at) / Fold change /veh LOC101060620 /// MAPK8IP1 (11723275_at) / RFU SPTSSB (11747773_x_at) / Fold change /veh SPTSSB (11747773_x_at) / RFU PRSS12 (11739890_at) / Fold change /veh PRSS12 (11739890_at) / RFU BIN1 (11741810_x_at) / Fold change /veh BIN1 (11741810_x_at) / RFU WNT11 (11732464_a_at) / Fold change /veh WNT11 (11732464_a_at) / RFU C10orf10 (11716521_a_at) / Fold change /veh C10orf10 (11716521_a_at) / RFU C5orf56 (11738089_at) / Fold change /veh C5orf56 (11738089_at) / RFU CYB561 (11721691_x_at) / Fold change /veh CYB561 (11721691_x_at) / RFU ANKRD19P (11752326_a_at) / Fold change /veh ANKRD19P (11752326_a_at) / RFU OR2T12 /// OR2T33 /// OR2T8 (11738714_s_at) / Fold change /veh OR2T12 /// OR2T33 /// OR2T8 (11738714_s_at) / RFU VCAN (11748164_a_at) / Fold change /veh VCAN (11748164_a_at) / RFU JSRP1 (11732532_at) / Fold change /veh JSRP1 (11732532_at) / RFU KRTAP10-11 (11738290_x_at) / Fold change /veh KRTAP10-11 (11738290_x_at) / RFU MYO3A (11730013_a_at) / Fold change /veh MYO3A (11730013_a_at) / RFU EBF3 (11725865_a_at) / Fold change /veh EBF3 (11725865_a_at) / RFU CAMK2N1 (11719241_x_at) / Fold change /veh CAMK2N1 (11719241_x_at) / RFU C5orf56 (11738088_a_at) / Fold change /veh C5orf56 (11738088_a_at) / RFU OLFML3 (11715873_a_at) / Fold change /veh OLFML3 (11715873_a_at) / RFU LOC100653217 /// NTM (11731650_a_at) / Fold change /veh LOC100653217 /// NTM (11731650_a_at) / RFU MAPK11 (11762145_a_at) / Fold change /veh MAPK11 (11762145_a_at) / RFU FIZ1 (11724087_x_at) / Fold change /veh FIZ1 (11724087_x_at) / RFU OASL (11726364_x_at) / Fold change /veh OASL (11726364_x_at) / RFU SOX15 (11748057_x_at) / Fold change /veh SOX15 (11748057_x_at) / RFU CD79A (11719716_a_at) / Fold change /veh CD79A (11719716_a_at) / RFU HIST1H1D (11736915_at) / Fold change /veh HIST1H1D (11736915_at) / RFU CASKIN2 (11723855_a_at) / Fold change /veh CASKIN2 (11723855_a_at) / RFU LOC730098 (11760151_x_at) / Fold change /veh LOC730098 (11760151_x_at) / RFU OR4N2 (11742367_at) / Fold change /veh OR4N2 (11742367_at) / RFU PRRT2 (11749266_a_at) / Fold change /veh PRRT2 (11749266_a_at) / RFU SNX32 (11753110_a_at) / Fold change /veh SNX32 (11753110_a_at) / RFU CDHR5 (11726645_a_at) / Fold change /veh CDHR5 (11726645_a_at) / RFU RCAN1 (11760418_a_at) / Fold change /veh RCAN1 (11760418_a_at) / RFU FAM167A (11723789_a_at) / Fold change /veh FAM167A (11723789_a_at) / RFU FAM26E (11764081_at) / Fold change /veh FAM26E (11764081_at) / RFU ISYNA1 (11749810_s_at) / Fold change /veh ISYNA1 (11749810_s_at) / RFU ACY1 (11761880_at) / Fold change /veh ACY1 (11761880_at) / RFU 11764098_at / Fold change /veh 11764098_at / RFU SAMD14 (11745864_x_at) / Fold change /veh SAMD14 (11745864_x_at) / RFU NPB (11741838_a_at) / Fold change /veh NPB (11741838_a_at) / RFU TMPRSS6 (11731388_a_at) / Fold change /veh TMPRSS6 (11731388_a_at) / RFU KRTAP10-2 (11738614_at) / Fold change /veh KRTAP10-2 (11738614_at) / RFU ARHGAP8 /// PRR5-ARHGAP8 (11727945_x_at) / Fold change /veh ARHGAP8 /// PRR5-ARHGAP8 (11727945_x_at) / RFU KRTAP5-7 /// NADSYN1 (11734609_at) / Fold change /veh KRTAP5-7 /// NADSYN1 (11734609_at) / RFU RASL12 (11751679_a_at) / Fold change /veh RASL12 (11751679_a_at) / RFU CDKN2B (11736163_a_at) / Fold change /veh CDKN2B (11736163_a_at) / RFU PRF1 (11729649_at) / Fold change /veh PRF1 (11729649_at) / RFU, ZNF638 /// ZNF638-IT1 / Fold change vs veh, ZNF638 /// ZNF638-IT1 / RFU, PANK3 / Fold change vs veh, PANK3 / RFU, SH3YL1 / Fold change vs veh, SH3YL1 / RFU, ZEB2 / Fold change vs veh, ZEB2 / RFU, NRIP1 / Fold change vs veh, NRIP1 / RFU, PTTG1IP / Fold change vs veh, PTTG1IP / RFU, CAPN2 / Fold change vs veh, CAPN2 / RFU, MED14 / Fold change vs veh, MED14 / RFU, SNORA58 / Fold change vs veh, SNORA58 / RFU, C1orf63 / Fold change vs veh, C1orf63 / RFU, LRRFIP1 / Fold change vs veh, LRRFIP1 / RFU, NDUFAF7 / Fold change vs veh, NDUFAF7 / RFU, SLC12A2 / Fold change vs veh, SLC12A2 / RFU, IBTK / Fold change vs veh, IBTK / RFU, ESF1 / Fold change vs veh, ESF1 / Fold change vs veh, TMEM50B / RFU, TAOK1 / Fold change vs veh, TAOK1 / RFU, ACBD3 / Fold change vs veh, ACBD3 / RFU, TMA16 / Fold change vs veh, TMA16 / RFU, RWDD3 / Fold change vs veh, RWDD3 / RFU, BCAT1 / Fold change vs veh, BCAT1 / RFU, EDEM3 / Fold change vs veh, EDEM3 / RFU, TMEM33 / Fold change vs veh, TMEM33 / RFU, WDR75 / Fold change vs veh, WDR75 / RFU, AHCTF1 / Fold change vs veh, AHCTF1 / RFU, TFRC / Fold change vs veh, TFRC / RFU, ZDHHC17 / Fold change vs veh, ZDHHC17 / RFU, NOM1 / Fold change vs veh, NOM1 / RFU, ARL8B / Fold change vs veh, ARL8B / RFU, ZBTB11 / Fold change vs veh, ZBTB11 / RFU, TAMM41 / Fold change vs veh, TAMM41 / RFU, KIAA1704 /// LOC100996395 / Fold change vs veh, KIAA1704 /// LOC100996395 / RFU, ING1 / Fold change vs veh, ING1 / RFU, TRMT61B / Fold change vs veh, TRMT61B / RFU, FUBP3 / Fold change vs veh, FUBP3 / RFU, TP53 / Fold change vs veh, TP53 / RFU, TNKS2 / Fold change vs veh, TNKS2 / RFU, ZFP14 / Fold change vs veh, ZFP14 / RFU, ACTR2 / Fold change vs veh, ACTR2 / RFU, PPP3R1 / Fold change vs veh, PPP3R1 / RFU, PIK3R1 / Fold change vs veh, PIK3R1 / RFU, HNRNPA1 / Fold change vs veh, HNRNPA1 / RFU, RNF170 / Fold change vs veh, RNF170 / RFU, ZNF28 / Fold change vs veh, ZNF28 / RFU, RNGTT / Fold change vs veh, RNGTT / RFU, OGT / Fold change vs veh, OGT / RFU, BRD1 / Fold change vs veh, BRD1 / RFU, MARS / Fold change vs veh, MARS / RFU, ZNF655 / Fold change vs veh, ZNF655 / RFU, FAHD1 / Fold change vs veh, FAHD1 / RFU, BDP1 / Fold change vs veh, BDP1 / RFU, LRRCC1 / Fold change vs veh, LRRCC1 / RFU, ARID1A / Fold change vs veh, ARID1A / RFU, ZNF146 / Fold change vs veh, ZNF146 / RFU, ZNF330 / Fold change vs veh, ZNF330 / RFU, GPN3 / Fold change vs veh, GPN3 / RFU, C9orf123 / Fold change vs veh, C9orf123 / RFU, N4BP2L2 / Fold change vs veh, N4BP2L2 / RFU, ARFIP1 / Fold change vs veh, ARFIP1 / RFU, FAM179B / Fold change vs veh, FAM179B / RFU, BCL10 / Fold change vs veh, BCL10 / RFU, UHRF1BP1L / Fold change vs veh, UHRF1BP1L / RFU, BET1 / Fold change vs veh, BET1 / RFU, CNOT2 / Fold change vs veh, CNOT2 / RFU, ZNF268 / Fold change vs veh, ZNF268 / Fold change vs veh, ZNF507 / RFU, DGCR2 / Fold change vs veh, DGCR2 / RFU, WDSUB1 / Fold change vs veh, WDSUB1 / Fold change vs veh, HSP90B1 /// MIR3652 / RFU, ADSS / Fold change vs veh, ADSS / RFU, GK / Fold change vs veh, GK / RFU, ZNF148 / Fold change vs veh, ZNF148 / RFU, TAF9 / Fold change vs veh, TAF9 / RFU, SLC1A5 / Fold change vs veh, SLC1A5 / RFU, SLMO2 / Fold change vs veh, SLMO2 / RFU, ABCC4 / Fold change vs veh, ABCC4 / RFU, LOC101060439 /// RAP1B / Fold change vs veh, LOC101060439 /// RAP1B / RFU, RFX7 / Fold change vs veh, RFX7 / RFU, GTPBP10 / Fold change vs veh, GTPBP10 / RFU, CNEP1R1 / Fold change vs veh, CNEP1R1 / RFU, BIVM-ERCC5 /// ERCC5 / Fold change vs veh, BIVM-ERCC5 /// ERCC5 / RFU, ILF3 / Fold change vs veh, ILF3 / RFU 11762660_at / Fold change /veh 11762660_at / RFU VCAN (11757783_s_at) / Fold change /veh VCAN (11757783_s_at) / RFU DDX43 (11728927_at) / Fold change /veh DDX43 (11728927_at) / RFU KRT8 (11758188_x_at) / Fold change /veh KRT8 (11758188_x_at) / RFU NKD1 (11759106_at) / Fold change /veh NKD1 (11759106_at) / RFU SRD5A1 (11742802_a_at) / Fold change /veh SRD5A1 (11742802_a_at) / RFU TPSAB1 /// TPSB2 (11721975_s_at) / Fold change /veh TPSAB1 /// TPSB2 (11721975_s_at) / RFU GSTM3 (11746129_a_at) / Fold change /veh GSTM3 (11746129_a_at) / RFU IL23R (11737362_x_at) / Fold change /veh IL23R (11737362_x_at) / RFU TMEM51 (11727254_a_at) / Fold change /veh TMEM51 (11727254_a_at) / RFU PIWIL2 (11732686_x_at) / Fold change /veh PIWIL2 (11732686_x_at) / RFU ORM1 (11744905_x_at) / Fold change /veh ORM1 (11744905_x_at) / RFU CCDC152 (11743942_at) / Fold change /veh CCDC152 (11743942_at) / RFU ECM1 (11717891_a_at) / Fold change /veh ECM1 (11717891_a_at) / RFU IL23R (11748794_a_at) / Fold change /veh IL23R (11748794_a_at) / RFU TNFAIP8L3 (11732012_x_at) / Fold change /veh TNFAIP8L3 (11732012_x_at) / RFU MBOAT4 (11741988_at) / Fold change /veh MBOAT4 (11741988_at) / RFU 11764193_at / Fold change /veh 11764193_at / RFU TMEM53 (11763286_at) / Fold change /veh TMEM53 (11763286_at) / RFU MAGEB2 (11727129_at) / Fold change /veh MAGEB2 (11727129_at) / RFU TMEM200A (11744735_a_at) / Fold change /veh TMEM200A (11744735_a_at) / RFU CCDC152 (11751479_a_at) / Fold change /veh CCDC152 (11751479_a_at) / RFU FAM211A (11726209_a_at) / Fold change /veh FAM211A (11726209_a_at) / RFU RGS16 (11746705_a_at) / Fold change /veh RGS16 (11746705_a_at) / RFU VCAN (11755009_s_at) / Fold change /veh VCAN (11755009_s_at) / RFU RHOB (11743442_s_at) / Fold change /veh RHOB (11743442_s_at) / RFU RGS16 (11720943_a_at) / Fold change /veh RGS16 (11720943_a_at) / RFU RGS16 (11720944_at) / Fold change /veh RGS16 (11720944_at) / RFU, VPS4B / Fold change vs veh, VPS4B / RFU, CREB1 / Fold change vs veh, CREB1 / RFU, DNAJC13 / Fold change vs veh, DNAJC13 / RFU, GNAQ / Fold change vs veh, GNAQ / RFU, CDK5R1 / Fold change vs veh, CDK5R1 / RFU, ZRANB3 / Fold change vs veh, ZRANB3 / RFU, CUL4A / Fold change vs veh, CUL4A / RFU, CCNY / Fold change vs veh, CCNY / RFU, UFL1 / Fold change vs veh, UFL1 / RFU, COG3 / Fold change vs veh, COG3 / RFU, DIAPH2 / Fold change vs veh, DIAPH2 / RFU, SKA2 / Fold change vs veh, SKA2 / RFU, AFF3 / Fold change vs veh, AFF3 / RFU, LMF1 / Fold change vs veh, LMF1 / RFU, IPO11 / Fold change vs veh, IPO11 / RFU, DFFB / Fold change vs veh, DFFB / RFU, FOXP1 / Fold change vs veh, FOXP1 / RFU, CARD8 / Fold change vs veh, CARD8 / RFU, STRN3 / Fold change vs veh, STRN3 / RFU, ADK / Fold change vs veh, ADK / RFU, RASSF2 / Fold change vs veh, RASSF2 / RFU, WIPF1 / Fold change vs veh, WIPF1 / RFU, LARP1B / Fold change vs veh, LARP1B / RFU, RASA1 / Fold change vs veh, RASA1 / RFU, RB1 / Fold change vs veh, RB1 / RFU, PPFIA1 / Fold change vs veh, PPFIA1 / RFU, MAT2A / Fold change vs veh, MAT2A / RFU, CCT5 / Fold change vs veh, CCT5 / RFU, WDR92 / Fold change vs veh, WDR92 / RFU, CUX1 / Fold change vs veh, CUX1 / RFU, TTC7A / Fold change vs veh, TTC7A / RFU, TMEM135 / Fold change vs veh, TMEM135 / RFU, DEPTOR / Fold change vs veh, DEPTOR / RFU, CPM / Fold change vs veh, CPM / RFU, DNAJB6 / Fold change vs veh, DNAJB6 / RFU, CACNA2D3 / Fold change vs veh, CACNA2D3 / RFU, DTX4 / Fold change vs veh, DTX4 / RFU, TFCP2 / Fold change vs veh, TFCP2 / RFU, GMCL1 /// GMCL1P1 / Fold change vs veh, GMCL1 /// GMCL1P1 / RFU, AEBP2 / Fold change vs veh, AEBP2 / RFU, SNHG1 /// SNORD22 /// SNORD25 /// SNORD26 /// SNORD27 /// SNORD28 /// SNORD29 /// SNORD31 / Fold change vs veh, SNHG1 /// SNORD22 /// SNORD25 /// SNORD26 /// SNORD27 /// SNORD28 /// SNORD29 /// SNORD31 / Fold change (Aza/veh), C12orf56 (ProbeSet 11735607_a_at) / Fold change (ACY-1035/veh), C12orf56 (ProbeSet 11735607_a_at) / Fold change (Aza/veh), FGFR1OP (ProbeSet 11751329_s_at) / Fold change (ACY-1035/veh), FGFR1OP (ProbeSet 11751329_s_at) / Fold change (Aza/veh), VPS36 (ProbeSet 11739960_a_at) / Fold change (ACY-1035/veh), VPS36 (ProbeSet 11739960_a_at) / RFU SYPL1 (11715823_x_at) / Fold change /veh SYPL1 (11715823_x_at) / RFU IGFBP7 (11715501_s_at) / Fold change /veh IGFBP7 (11715501_s_at) / RFU REEP3 (11722064_at) / Fold change /veh REEP3 (11722064_at) / RFU IGLL1 (11728026_x_at) / Fold change /veh IGLL1 (11728026_x_at): dose or concentration left out as unconfirmed. Type of assay: cell-based, human.

With `Nc1ccc(-c2cccs2)cc1NC(=O)c1ccc2c(c1)cc(C1CC1)n2CCN1CCOCC1` [ACY-1035], the “Fold change vs veh, SNORA58” value was found to be 0.89.
